Source: US20260224559A1, “FORMULATIONS FOR TREATING CANCER” (FOGHORN THERAPEUTICS INC., priority 2023, published 2026)

Legend:
[1] = test system: SYO-1 human biphasic synovial sarcoma tumor cells; assay: Nanosuspension mouse efficacy study, SYO-1 xenograft tumor volume; type: in vivo; settings: SYO-1 xenograft mice, Cohorts 2-8, IV, SC, IM, 1-200 mg/kg, over 4 weeks, FIG. 3B
Method: (§1) Each mouse was inoculated subcutaneously on the right flank with a single cell suspension of SYO-1 human biphasic synovial sarcoma tumor cells (5×10^6) in 100 μL DMEM with 10% FBS for the tumor development. Treatment (Table 6) was started when mean tumor volume reached about 100-150 mm^3 for the efficacy cohorts. Based on the tumor volume, mice were randomly assigned to respective groups using a computer-generated randomization procedure. Corresponding formulations are in Table 6. For each dosing cohort, dosing volume was calculated based on concentration of the formulation and dose volume (ml/kg). Vehicle for IV was 20% HP-β-CD in 5 mM citrate buffer of pH 3, with adjustment to a final PH of 5. Body weight of all animals was measured and recorded twice a week throughout the study. The measurement of tumor size was conducted twice a week with a caliper and recorded. Tumor volume was used for calculation of tumor growth inhibition (TGI) value of the tumors in the treated and the control cohorts, respectively, on a given day after tumor inoculation.
64 plasma samples were collected at two time points (672 h and 676 h) from efficacy study cohorts. 64 tumor samples were collected at two time points (672 h and 676 h) from efficacy cohorts 1-8 and cut into 3 pieces: one piece for PK analysis, one piece for WB analysis (BRD9), and one piece snap frozen for further analysis (n=4). […]

[2] = Particle size analysis of Compound A nanosuspension / microsuspension formulations; type: physicochemical; settings: jet mill feed pressure 4.5 bar, milling pressure 5.0 bar, before ball milling
Method: Milling was performed in a high energy ball mill with suitable sized-spherical, polymeric or Zirconium oxide beads. Compound A and excipient(s) as indicated in Table 1 were combined in deionized water per the indicated batch size and transferred to the milling chamber. Nanosuspensions A through D were generated utilizing process conditions denoted in Table 2.
Compound A was first mechanically jet-milled to reduce initial particle size prior to ball milling. The jet mill feed pressure was 4.5 bar and milling pressure was 5.0 bar. The resulting particle size of jet milled Compound A was 5-6 microns […]. […]
Compound A in a concentration range of between about 20 mg/mL to about 100 mg/mL (2-10% w/w), along with parenteral grade olive oil and 1% sorbitan monooleate [SPAN®80], was nano-milled using a high energy mill at 3000 rpm with 0.3 mm beads or 0.65 mm beads to produce microsuspensions. […] Performance of an amorphous microsuspension of Compound A was evaluated in Male SD rats. […] At each time point, approximately 0.2 mL blood was collected via jugular vein and analyzed by LC-MS/MS for mean plasma concentration of Compound A (FIG. 4). Pharmacokinetics determined that a target Cmin of 3 ng/mL was desired, which is denoted by the black dashed line in FIG. 4. […]

[3] = Body weight / tolerability in mouse efficacy study; type: in vivo; settings: tumor-bearing mice, all doses and all modes of administration, 4 weeks, FIG. 3A
Method: as §1

particle size (D50) of jet milled Compound A [2]: 5-6 microns
Structure (SMILES): COc1cc(-c2cn(C)c(=O)c3cnc(N4CCC4)cc23)cc(OC)c1CN1CCC(CN2CCC3(CC2)CN(c2ccc4c(c2)C(=O)N(C2CCC(=O)NC2=O)C4)C3)CC1 (stereo not drawn) [Compound A, 3-(6-(7-((1-(4-(6-(azetidin-1-yl)-2-methyl-1-oxo-1,2-dihydro-2,7-naphthyridin-4-yl)-2,6-dimethoxybenzyl)piperidin-4-yl)methyl)-2,7-diazaspiro[3.5]nonan-2-yl)-1-oxoisoindolin-2-yl)piperidine-2,6-dione]
tumor growth (tumor volume) versus Vehicle control [1]: slowed tumor growth significantly | body weight [3]: remaining fairly constant
